Literature values, collected in patent US20250213514A1, “STABLE, LIQUID PHARMACEUTICAL COMPOSITIONS COMPRISING MELPHALAN” (GOOD HEALTH, LLC, priority 2022, published 2025).
Like-named read-outs stand apart in the source and are kept apart here.

Compound: N[C@@H](Cc1ccc(N(CCCl)CCCl)cc1)C(=O)O [Melphalan]
- Solubility (in ethanol, methanol): slightly soluble
- Solubility (in propylene glycol and dilute mineral acids): soluble
- Solubility (in water, chloroform, and ether): practically insoluble
